Results published in patent US20260274814A1, “THIENYL COMPOUNDS FOR THE TREATMENT OF A CENTRAL NERVOUS SYSTEM DISEASE OR DISORDER” (Coreterra Therapeutics, Inc., priority 2023, published 2026).
Where a name gives a salt, the structure may show the parent alone.

Tested on: mice
Assay: Neuropharmacological Assay (SmartCube): automated behavioral signature of compound-treated mice compared with a database of reference drug classes
Format: in vivo
Details: for minimal effective dose: Mus musculus, ip, read-out: MED (minimal effective dose); for minimal effective dose / MED (minimal effective dose): dose having 45% or more total activity in SmartCube, i.p., if only one dose was tested, that dose is shown; for AD / AG / AN / AP / AX / CE / HL / MS / PS / SH / UK: probability that activity matches this class of agents, 3.0 mg/kg i.p., 15 min before test
Excerpt: Neurosci. 2011 Sep. 9; 5: 103 (doi: 10.3389/fnins.2011.00103) (“Roberds”). As reported in Roberds, because psychiatric diseases generally result from disorders of cell-cell communication or circuitry, intact systems are useful in detecting improvement in disease-relevant endpoints. These endpoints are typically behavioral in nature, often requiring human observation and interpretation. To facilitate testing of multiple compounds for behavioral effects relevant to psychiatric disease, PsychoGenics, Inc. (Tarrytown, NY, “PGI”) developed SmartCube™ an automated system in which behaviors of compound-treated mice are captured by digital video and analyzed with computer algorithms. (D. Brunner et al. Drug Discov. Today 2002, 7:S107-S112). PGI Analytical Systems uses data from SmartCube™ to compare the behavioral signature of a test compound to a database of behavioral signatures obtained using a large set of diverse reference compounds. (The composition of the database as well as validation of the method is further described in Roberds). In this way, the neuropharmacological effects of a test compound can be predicted by similarity to major classes of compounds, such as antipsychotics, anxiolytics and antidepressants.
The SmartCube™ system produces an activity signature indicating the probability that the activity of the test compound at the administered dose matches a given class of neuropharmacological agents. (See, e.g., Roberds, FIGS. 2 and 3). The test compound is simultaneously compared against multiple classes of agents; thus, a separate probability is generated for each behavioral effect measured (e.g., anxiolytic activity, analgesic activity, etc.). In table 2 below, these probabilities are reported for each behavioral effect measured as described in Table 1 below.
Provided compounds were dissolved in a mixture of Pharmasolve™ (N-methyl-2-pyrrolidone), polyethylene glycol and propylene glycol, and were injected i.p. 15 min. before the behavioral test. For each compound, injections were administered at 3 different doses. For each behavioral effect measured, results for the 3.0 mg/kg dose are presented. The potency of many of the compounds in the table was also determined in the SmartCube™ system. Test compounds were routinely examined at dose levels of 0.3, 1, 3 and 10 mg per kg (mpk), although the dose range was increased or decreased, if necessary, to obtain a full dose response curve. A compound's minimal effective dose (MED) is a measure of the compound's potency. The MED was defined as the dose (in mpk) having 45% or more total activity in SmartCube. If only one dose was tested, that dose is shown in the MED column of Table 2 even though the dose is not known to be the MED.

SMILES | minimal effective dose | AD | AG | AN | AP | AX | CE | HL | MS | PS | SH | UK | MED (minimal effective dose) | AD (hydrochloride, 3 mg/kg) | further results
Cc1cc2c(s1)CC(N(C)C)CC2.Cl (single isomer, unassigned) [Compound 34, N,N, 2-trimethyl-4,5,6,7-tetrahydrobenzothiophen-6-amine hydrochloride] | 10 mg/kg | ND (^ <4%) | ND (^ <4%) | ND (^ <4%) | ND (^ <4%) | ND (^ <4%) | ND (^ <4%) | ND (^ <4%) | ND (^ <4%) | ND (^ <4%) | ND (^ <4%) | ++ (≥24%) |  |  | 
Cc1cc2c(s1)CC(N(C)C)CC2.Cl (single isomer, unassigned) [Compound 35, N,N, 2-trimethyl-4,5,6,7-tetrahydrobenzothiophen-6-amine hydrochloride] |  | ND (^ <4%) |  |  |  |  |  |  |  |  |  | ++ (≥24%) | 10 mpk |  | 
CNC1CCc2cc(C#N)sc2C1 (single isomer, unassigned) [Compound 36, 6-(methylamino)-4,5,6,7-tetrahydrobenzothiophene-2-carbonitrile hydrochloride] | 3 mg/kg | ND (^ <4%) | ND (^ <4%) | ND (^ <4%) |  | ND (^ <4%) | ND (^ <4%) | ND (^ <4%) | ND (^ <4%) | ND (^ <4%) | ND (^ <4%) |  |  |  | AP (hydrochloride, 3 mg/kg): +++ (≥49%); UK (hydrochloride, 3 mg/kg): ++ (≥24%)
CNC1CCc2cc(C#N)sc2C1 (single isomer, unassigned) [Compound 37, 6-(methylamino)-4,5,6,7-tetrahydrobenzothiophene-2-carbonitrile hydrochloride] |  | ND (^ <4%) | ND (^ <4%) | ND (^ <4%) |  | ND (^ <4%) | ND (^ <4%) | ND (^ <4%) | ND (^ <4%) | ND (^ <4%) | ND (^ <4%) |  | 3.0 mpk |  | AP (hydrochloride, 3 mg/kg): ND (^ <4%); UK (hydrochloride, 3 mg/kg): +++ (≥49%)
CNC1CCc2cc(C(F)(F)F)sc2C1 (single isomer, unassigned) [Compound 38, N-methyl-2-(trifluoromethyl)-4,5,6,7-tetrahydrobenzothiophen-6-amine] | 3 mg/kg |  | ND (^ <4%) | ND (^ <4%) |  | ND (^ <4%) | ND (^ <4%) | ND (^ <4%) | ND (^ <4%) | ND (^ <4%) | ND (^ <4%) |  |  |  | AD (3 mg/kg): ND (^ <4%); AP (3 mg/kg): ND (^ <4%); UK (3 mg/kg): ++ (≥24%)
CNC1CCc2cc(C(F)(F)F)sc2C1 (single isomer, unassigned) [Compound 39, N-methyl-2-(trifluoromethyl)-4,5,6,7-tetrahydrobenzothiophen-6-amine] |  |  | ND (^ <4%) | ND (^ <4%) |  | ND (^ <4%) | ND (^ <4%) | ND (^ <4%) | ND (^ <4%) | ND (^ <4%) | ND (^ <4%) |  | 3.0 mpk |  | AD (3 mg/kg): +++ (≥49%); AP (3 mg/kg): ++ (≥24%); UK (3 mg/kg): ND (^ <4%)
CNC1CCc2csc(C)c2C1.Cl (single isomer, unassigned) [Compound 40, N, 3-dimethyl-4,5,6,7-tetrahydro-2-benzothiophen-5-amine hydrochloride] | 1 mg/kg |  | ND (^ <4%) | ND (^ <4%) | ++ (≥24%) |  | ND (^ <4%) | ND (^ <4%) | ND (^ <4%) | ND (^ <4%) | ND (^ <4%) | ND (^ <4%) |  | ND (^ <4%) | AX (hydrochloride, 3 mg/kg): +++ (≥49%)
CNC1CCc2csc(C)c2C1.Cl (single isomer, unassigned) [Compound 41, N, 3-dimethyl-4,5,6,7-tetrahydro-2-benzothiophen-5-amine hydrochloride] |  |  | ND (^ <4%) | ND (^ <4%) | ++ (≥24%) |  | ND (^ <4%) | ND (^ <4%) | ND (^ <4%) | ND (^ <4%) | ND (^ <4%) | ND (^ <4%) | 1.0 mpk | +++ (≥49%) | AX (hydrochloride, 3 mg/kg): ND (^ <4%)
CNC1CCc2c(sc(C)c2C)C1 (single isomer, unassigned) [Compound 42, N, 2,3-trimethyl-4,5,6,7-tetrahydrobenzothiophen-6-amine hydrochloride] | 3 mg/kg | ++++ (≥74%) | ND (^ <4%) | ND (^ <4%) | ND (^ <4%) | ND (^ <4%) | ND (^ <4%) |  | ND (^ <4%) | ND (^ <4%) | ND (^ <4%) | ND (^ <4%) |  |  | HL (hydrochloride, 3 mg/kg): ND (^ <4%)
CNC1CCc2c(sc(C)c2C)C1 (single isomer, unassigned) [Compound 43, N, 2,3-trimethyl-4,5,6,7-tetrahydrobenzothiophen-6-amine hydrochloride] |  | ++++ (≥74%) | ND (^ <4%) | ND (^ <4%) | ND (^ <4%) | ND (^ <4%) | ND (^ <4%) |  | ND (^ <4%) | ND (^ <4%) | ND (^ <4%) | ND (^ <4%) | 3.0 mpk |  | HL (hydrochloride, 3 mg/kg): + (≥4%)
CNC1CCc2c(C)csc2C1 (single isomer, unassigned) [Compound 44, N, 3-dimethyl-4,5,6,7-tetrahydrobenzothiophen-6-amine hydrochloride] |  |  | ND (^ <4%) | ND (^ <4%) |  | ND (^ <4%) | ND (^ <4%) | ND (^ <4%) | ND (^ <4%) | ND (^ <4%) | ND (^ <4%) | ND (^ <4%) |  | ++ (≥24%) | MED (minimal effective dose) (hydrochloride): 1.0 mpk; AP (hydrochloride, 3 mg/kg): +++ (≥49%)
CNC1CCc2c(C)csc2C1 (single isomer, unassigned) [Compound 45, N, 3-dimethyl-4,5,6,7-tetrahydrobenzothiophen-6-amine hydrochloride] |  |  | ND (^ <4%) | ND (^ <4%) |  | ND (^ <4%) | ND (^ <4%) | ND (^ <4%) | ND (^ <4%) | ND (^ <4%) | ND (^ <4%) | ND (^ <4%) |  | ++++ (≥74%) | MED (minimal effective dose) (hydrochloride): 0.1 mpk; AP (hydrochloride, 3 mg/kg): + (≥4%)
CNC1COc2ccsc2C1 (single isomer, unassigned) [Compound 46, N-methyl-6,7-dihydro-5H-thieno[3,2-b]pyran-6-amine hydrochloride] |  |  | ND (^ <4%) | ND (^ <4%) | ND (^ <4%) |  | ND (^ <4%) | ND (^ <4%) | ND (^ <4%) | ND (^ <4%) | ND (^ <4%) |  |  | ND (^ <4%) | MED (minimal effective dose) (hydrochloride): 10 mpk; AX (hydrochloride, 3 mg/kg): + (≥4%); UK (hydrochloride, 3 mg/kg): ++ (≥24%)
CNC1COc2ccsc2C1 (single isomer, unassigned) [Compound 47, N-methyl-6,7-dihydro-5H-thieno[3,2-b]pyran-6-amine hydrochloride] |  |  | ND (^ <4%) | ND (^ <4%) | ND (^ <4%) |  | ND (^ <4%) | ND (^ <4%) | ND (^ <4%) | ND (^ <4%) | ND (^ <4%) |  |  | ++++ (≥74%) | MED (minimal effective dose) (hydrochloride): 0.3 mpk; AX (hydrochloride, 3 mg/kg): ND (^ <4%); UK (hydrochloride, 3 mg/kg): ND (^ <4%)
